Experimental data reported in US10004713B2 (SICHUAN JIUZHANG BIOLOGICAL SCIENCE AND TECHNOLOGY CO., LTD, priority 2014, dated 2018).

Key:
[1] = tested on: human brain oligodendroglioma cells; experiment: Inhibitory effect of chlorogenic acid on proliferation of primary culture human brain oligodendroglioma cells (MTT method / WST-1); assay type: cell-based; conditions: 48 h
[2] = tested on: human brain glioma; experiment: Inhibitory effect of chlorogenic acid on transplanted glioma in mice (tumor weight); assay type: in vivo; conditions: 15 d; for Tumor weight: x ± s
Method: (1) Model establishment 50 mice were divided into 5 groups, 10 mice for each group. The solution of brain glioblastoma cell lines was suitably diluted, and inoculated in cortex of left temporal lobe of mice in five groups, respectively.
(2) Administration and intervention After inoculated for 24 h, five groups of mice were administrated by intraperitoneal injection. […] (3) Measuring inhibitory rate On the last day, administration was ceased, and all mice were sacrificed. Mice were dissected, and tissue of tumor was removed and weighed. Inhibitory Rate=(the Mean Tumor Weight of Control Group−the Mean Tumor Weight of Treatment Group)/the Mean Tumor Weight of Control Group×100%. (4) Statistical method The data were presented as mean±standard deviation (x±s), and statistical analysis was performed using SPSS15.0 software, and p<0.05 was considered to be a statistically significant difference. 3. Results

[3] = tested on: C6 glioma cells; experiment: In vitro inhibitory effect against C6 glioma cells by MTT method; assay type: cell-based, rat; conditions: 48 h; for OD values 1: replicate 1; for OD values 2: replicate 2; for OD values 3: replicate 3
Method: (§1) 3. Cell line: C6 rat glioma cell lines for experiment is provided by Key Laboratory of Transplant Engineering and Immunology, Ministry of health, West China Hospital, Sichuan University.
(§2) (1) Cells, growing in serum-containing medium and serum-free medium and presenting exponential growth phase, were taken out, and digested with pancreatin, to form single cells. Tumor cells were still seeded in serum-containing medium, while tumor stem cells were seeded in serum-free medium. Their concentrations were both adjusted to 2.0×10^5/ml, and cells were seeded in 96 well plate, 100 μl for each well. Amongst, four groups were experimental groups, and one group was negative control; the medium without cells was used as blank control, and each group had five repeated wells. Culture was carried out in an incubator at 37° C. with 5% CO2 and saturated humidity for one night. When seeding in 96 well plate, peripheral wells were not used to avoid the edge effect.
(§3) (2) Next day after inoculation, cells attached before administration was carried out and static culture was kept for 48 h.
(§4) (3) Wells for normal control group of tumor cells were included, and the wells were not treated with drug, and only equal amount (100 μl) of complete medium was added. Experiment on normal control group was performed, together with above three groups.
(§5) (4) The culture was continued under 5% CO2 at 37° C., and after culturing for 48 h, cells were placed under inverted microscope for observation and taking a picture.
(§6) (5) On sterile bench board, 20 μL 0.5% MTT was added to each well, and the culture was continued for 4 h. At 37° C., the culture was stood for overnight (same time for each group), then OD values were tested using microplate reader, while the absorbance of each well was measured at […].
(§7) (6) Calculating inhibitory rate of cell growth Formula: Inhibitory rate of cell growth IR (%)=1−(OD value of cells in experimental group/OD value of cells in control group)×100%. (III) Statistical Analysis

[4] = tested on: C6 glioma stem cells; experiment: In vitro inhibitory effect against C6 glioma stem cells by MTT method; assay type: cell-based, rat; conditions: 48 h; for OD values 1: replicate 1; for OD values 2: replicate 2; for OD values 3: replicate 3
Method: as §1
(1) C6 cells were seeded in traditional serum medium and sub-cultured in culture bottle. Cells in exponential phase of growth were washed with PBS solution, digested with 0.25% trypsin, and pipetted by self-made pasteur pipette, to form single cells. Cells were resuspended in SFM, stained with trypan blue, and counted. Cells were seeded in culture bottle with a bottom area of 25 cm^2 at a concentration of 1×10^5/well, and placed in an incubator at 37° C. with 5% CO2 and saturated humidity for culture.
The medium was sucked out and centrifuged before half of old medium was removed, then centrifuged at 800 rpm/min for 5 min. The supernatant was discarded. Cells are resuspended in SFM, and gentle pipette with self-made pasteur pipette was repeated, for dissociating cell dumps into single cells. In a ratio of 1:2 or 1:3, cells were seeded in culture bottles with a bottom area of 25 cm^2, and diluted with SFM to 6 ml; alternatively, at the same concentration, cells were seeded in 6 well plate. To each well, was added 2.5 ml SFM, and continued culturing in an incubator at 37° C. with 5% CO2 and saturated humidity.
as §2, with “Amongst, four groups were experimental groups, and one group was negative control; the medium without cells was used as blank control, and each group had five repeated wells.” left out
as §3, §4, §5, §6, §7

[5] = High dose 40 mg/kg intraperitoneal
[6] = Low dose 10 mg/kg intraperitoneal
[7] = Rattus norvegicus, 16 μg/ml, read-out: Inhibitory rate (%)
[8] = Rattus norvegicus, 32 μg/ml, read-out: Inhibitory rate (%)
[9] = Rattus norvegicus, 64 μg/ml, read-out: Inhibitory rate (%)
[10] = Rattus norvegicus, 128 μg/ml, read-out: Inhibitory rate (%)

O=C(/C=C/c1ccc(O)c(O)c1)O[C@@H]1C[C@](O)(C(=O)O)C[C@@H](O)[C@H]1O [chlorogenic acid]
Cellular morphology under inverted microscope ([1]; compared with normal control group): obvious decrease of cell numbers | inhibition at 32 µg/mL ([1]; Homo sapiens, 32 μg/ml, read-out: Inhibitory rate (%)): 39.9% | inhibition at 64 µg/mL ([1]; Homo sapiens, 64 μg/ml, read-out: Inhibitory rate (%)): 44.9% | inhibition at 128 µg/mL ([1]; Homo sapiens, 128 μg/ml, read-out: Inhibitory rate (%)): 60.4% | Inhibitory rate (%) [2, 5]: 60.58% | Tumor weight [2, 5]: 0.529 ± 0.168 g | Inhibitory rate (%) [2, 6]: 48.51% | Tumor weight [2, 6]: 0.690 ± 0.188 g | Inhibitory rate (%) ([2]; Middle dose 20 mg/kg intraperitoneal): 69.92% | OD values mean ([3]; 16 μg/ml): 1.515 | OD values 1 ([3]; 16 μg/ml): 1.640 | OD values 2 ([3]; 16 μg/ml): 1.553 | OD values 3 ([3]; 16 μg/ml): 1.351 | OD values mean ([3]; 32 μg/ml): 1.472 | OD values 1 ([3]; 32 μg/ml): 1.558 | OD values 2 ([3]; 32 μg/ml): 1.573 | OD values 3 ([3]; 32 μg/ml): 1.286 | OD values mean ([3]; 64 μg/ml): 1.326 | OD values 1 ([3]; 64 μg/ml): 1.314 | OD values 2 ([3]; 64 μg/ml): 1.247 | OD values 3 ([3]; 64 μg/ml): 1.417 | OD values mean ([3]; 128 μg/ml): 1.028 | OD values 1 ([3]; 128 μg/ml): 1.021 | OD values 2 ([3]; 128 μg/ml): 1.023 | OD values 3 ([3]; 128 μg/ml): 1.041 | inhibition at 16 µg/mL [3, 7]: 32.1% | inhibition at 32 µg/mL [3, 8]: 34% | inhibition at 64 µg/mL [3, 9]: 40.6% | inhibition at 128 µg/mL [3, 10]: 53.9% | OD values mean ([4]; 16 μg/ml): 1.715 | OD values 1 ([4]; 16 μg/ml): 1.713 | OD values 2 ([4]; 16 μg/ml): 1.700 | OD values 3 ([4]; 16 μg/ml): 1.731 | OD values mean ([4]; 32 μg/ml): 1.634 | OD values 1 ([4]; 32 μg/ml): 1.533 | OD values 2 ([4]; 32 μg/ml): 1.739 | OD values 3 ([4]; 32 μg/ml): 1.631 | OD values mean ([4]; 64 μg/ml): 1.378 | OD values 1 ([4]; 64 μg/ml): 1.367 | OD values 2 ([4]; 64 μg/ml): 1.358 | OD values 3 ([4]; 64 μg/ml): 1.410 | OD values mean ([4]; 128 μg/ml): 1.223 | OD values 2 ([4]; 128 μg/ml): 1.200 | inhibition at 16 µg/mL [4, 7]: 23.2% | inhibition at 32 µg/mL [4, 8]: 26.8% | inhibition at 64 µg/mL [4, 9]: 38.2% | inhibition at 128 µg/mL [4, 10]: 45.2%

CC(=O)O[C@@]12CO[C@@H]1C[C@H](O)[C@@]1(C)C(=O)[C@H](O)C3=C(C)[C@@H](OC(=O)[C@H](O)[C@@H](NC(=O)OC(C)(C)C)c4ccccc4)C[C@@](O)([C@@H](OC(=O)c4ccccc4)[C@H]21)C3(C)C [Positive control group, docetaxel, reference compound]
Inhibitory rate (%) ([2]; 5 mg/kg intraperitoneal): 73.3% | Tumor weight ([2]; 5 mg/kg intraperitoneal): 0.389 ± 0.305 g
